Results taken from patent US20240190855A1 (Relay Therapeutics, Inc., priority 2021, published 2024).

target: T1, CDK2/Cyclin E complex (Homo sapiens, UniProt P24941); assay: CDK2/Cyclin E fluorescence-based microfluidic mobility shift assay (CDK2 Biochemical Caliper Assay); details: read-out: Biochemical CDK2/CyclinE Caliper IC50
T1 construct: purchased Eurofins 14-475
Procedure, shortened: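 Wild-type CDK2/Cyclin E was preincubated with compound and ATP for 30 min at RT before the 5-FAM-QSPKKG peptide was added. Final concentrations were 0.1 nM enzyme, 2000 uM ATP, 1.5 uM peptide and 1% DMSO. After 20 hr at RT and EDTA stop, substrate conversion was read by microfluidic mobility shift over an 11-point, 3-fold dilution series.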

First: COCc1cc(C(=O)Nc2cc([C@H]3CC[C@@H](Cc4ncc(C)s4)C3)[nH]n2)n(C)n1 (single isomer, unassigned) [Example 554]
Second: COCc1cc(C(=O)Nc2cc([C@@H]3CC[C@H](Cc4ncc(C)s4)C3)[nH]n2)n(C)n1 (single isomer, unassigned) [Example 555]
The IC50 of the first is higher: 1000 to 100000 nM for the first, 250 to 1000 nM for the second. The second is the more potent here.

`COCc1cc(C(=O)Nc2cc([C@@H]3CC[C@@H](Cc4ncc(C)s4)C3)[nH]n2)n(C)n1` (single isomer, unassigned) [Example 556] and `COCc1cc(C(=O)Nc2cc([C@H]3CC[C@H](Cc4ncc(C)s4)C3)[nH]n2)n(C)n1` (single isomer, unassigned) [Example 557] fall in the same range of IC50: 1000 to 100000 nM for the first, 1000 to 100000 nM for the second.

`CC(C)NC(=O)O[C@@H]1CC[C@H](c2cc(Nc3cncc(OCCO)n3)n[nH]2)C1` (single isomer, unassigned) [Example 563] and `CC(C)NC(=O)O[C@H]1CC[C@@H](c2cc(Nc3cncc(OCCO)n3)n[nH]2)C1` (single isomer, unassigned) [Example 564] cannot be ordered by IC50: no more than 100 nM for the first, no more than 100 nM for the second.

First: CC1(C)NC(=O)c2ccc(Nc3cc([C@H]4CC[C@@H](Oc5cccnc5)C4)[nH]n3)cc21 (single isomer, unassigned) [Example 565]
Second: COCc1cc(C(=O)Nc2cc([C@H]3CC[C@@H](c4ccc(C)nn4)C3)[nH]n2)n(C)n1 (single isomer, unassigned) [Example 572]
The IC50 of the first is lower: no more than 100 nM for the first, 1000 to 100000 nM for the second.

`COCc1cc(C(=O)Nc2cc([C@H]3C[C@H](OC)[C@@H](OC(=O)NC(C)C)C3)[nH]n2)n(C)n1` (single isomer, unassigned) [Example 567] and `COCc1cc(C(=O)Nc2cc([C@@H]3C[C@@H](OC)[C@H](OC(=O)NC(C)C)C3)[nH]n2)n(C)n1` (single isomer, unassigned) [Example 568] fall in the same range of IC50: 1000 to 100000 nM for the first, 1000 to 100000 nM for the second.

`COCc1cc(C(=O)Nc2cc([C@@H]3C[C@H](OC)[C@@H](OC(=O)NC(C)C)C3)[nH]n2)n(C)n1` (single isomer, unassigned) [Example 569] and `COCc1cc(C(=O)Nc2cc([C@H]3C[C@@H](OC)[C@H](OC(=O)NC(C)C)C3)[nH]n2)n(C)n1` (single isomer, unassigned) [Example 570] fall in the same range of IC50: 1000 to 100000 nM for the first, 1000 to 100000 nM for the second.

`COCc1cc(C(=O)Nc2cc([C@@H]3CC[C@H](c4ccc(C)nn4)C3)[nH]n2)n(C)n1` (single isomer, unassigned) [Example 573] and `COCc1cc(C(=O)Nc2cc([C@@H]3CC[C@@H](c4ccc(C)nn4)C3)[nH]n2)n(C)n1` (single isomer, unassigned) [Example 574] fall in the same range of IC50: 1000 to 100000 nM for the first, 1000 to 100000 nM for the second.

`COCc1cc(C(=O)Nc2cc([C@H]3CC[C@H](c4ccc(C)nn4)C3)[nH]n2)n(C)n1` (single isomer, unassigned) [Example 575] and `COCc1cc(C(=O)Nc2cc([C@H]3CC[C@@H](c4cnc(C)cn4)C3)[nH]n2)n(C)n1` (single isomer, unassigned) [Example 576] fall in the same range of IC50: 1000 to 100000 nM for the first, 1000 to 100000 nM for the second.

`COCc1cc(C(=O)Nc2cc([C@@H]3CC[C@H](c4cnc(C)cn4)C3)[nH]n2)n(C)n1` (single isomer, unassigned) [Example 577] and `COCc1cc(C(=O)Nc2cc([C@@H]3CC[C@@H](c4cnc(C)cn4)C3)[nH]n2)n(C)n1` (single isomer, unassigned) [Example 578] fall in the same range of IC50: 1000 to 100000 nM for the first, 1000 to 100000 nM for the second.

First: COCc1cc(C(=O)Nc2cc([C@H]3CC[C@H](c4cnc(C)cn4)C3)[nH]n2)n(C)n1 (single isomer, unassigned) [Example 579]
Second: COCc1cc2c(Nc3cc([C@@H]4C[C@H](OC(=O)N5[C@@H](C)CC[C@@H]5C)CO4)[nH]n3)nccn2n1 (single isomer, unassigned) [Example 580]
The IC50 of the first is higher: 1000 to 100000 nM for the first, no more than 100 nM for the second.

Compared with `COCc1cc2c(Nc3cc([C@H]4C[C@@H](OC(=O)N5[C@@H](C)CC[C@@H]5C)CO4)[nH]n3)nccn2n1` (single isomer, unassigned) [Example 581], `CC(C)c1[nH]ncc1O[C@@H]1CO[C@H](c2cc(Nc3nccn4nccc34)n[nH]2)C1` (single isomer, unassigned) [Example 584] is higher in IC50: no more than 100 nM for the first, 1000 to 100000 nM for the second.
